Assay results from US10377774B2 (JINAN UNIVERSITY, priority 2013, dated 2019).
Read-outs that look alike come from different tables or passages of the source. Marks after values point to notes of the source that are not given here.

What was measured:
[1] = test system: human prostatic cancer cell line PC-3; assay: MTT cell growth inhibition, PC-3; assay type: cell-based; conditions: PC-3, MTT assay, 72 h, read-out: IC50, growth of tumor cell line
Description: (§3) Experimental method: Cell lines (human non-small-cell lung cancer cell line A549, human colon cancer cell line LOVO, human nasopharyngeal carcinoma cell line CNE-2, human liver cancer cell line HepG2, human cervical carcinoma cell line Hela, human breast cancer cell lines MCF-7 and MDA-MB-231, human gastric carcinoma cell line NCI-N87, human prostatic cancer cell lines PC-3 and DU145, human leukemia cell line K562, human melanoma cell line A375, human neuroblastoma cell line SH-SY5H, human promyelocytic leukemia cell line HL-60, 5-FU-resistant human hepatocellular carcinoma cell line BEL-7402/5-Fu, doxorubicin-resistant hepatocellular carcinoma cell line HepG2/ADM, doxorubicin-resistant human breast cancer cell lines MCF-7/ADR) at logarithmic phase were resuspended in RPMI 1640 medium (containing 10% fetal bovine serum, 100 U/mL penicillin-streptomycin). Then, 100 μL of cells (cell concentration was 5×10^5/mL) were seeded into 96 wells plate. After 24 h incubation at 37° C. with 5% CO2, tested compounds were added (the control group without compound) for an additional 72 h incubation. After that, 30 μL of MTT [3-(4,5-Dimethylthiazol-2-yl)-2,5-diphenyltetrazolium bromide] solution (5 mg/mL) was added into each well and incubated for another 4 h at 37° C. and then the formazan crystals were solubilized with 100 μL DMSO. Finally, absorbance of each well was determined at 570 nm by a microplate reader (Thermo).
(§4) The concentration required to inhibit cell growth by 50% (IC50) was calculated from survival curves.

[2] = test system: human liver cancer cell line HepG2; assay: MTT cell growth inhibition, HepG2; assay type: cell-based; conditions: HepG2, MTT assay, 72 h, read-out: IC50, growth of tumor cell line
Description: as §3, §4

[3] = test system: human breast cancer cell line MCF-7; assay: MTT cell growth inhibition, MCF-7; assay type: cell-based; conditions: MCF-7, MTT assay, 72 h, read-out: IC50, growth of tumor cell line
Description: as §3, §4

[4] = test system: 5-FU-resistant human hepatocellular carcinoma cell line BEL-7402/5-Fu; assay: MTT cell growth inhibition, BEL-7402/5-Fu; assay type: cell-based; conditions: MTT assay, 72 h, read-out: IC50, growth of tumor cell line
Description: as §3, §4

[5] = test system: human melanoma cell line A375; assay: MTT cell growth inhibition, A375; assay type: cell-based; conditions: A375, MTT assay, 72 h, read-out: IC50, growth of tumor cell line
Description: as §3, §4

[6] = test system: human nasopharyngeal carcinoma cell line CNE-2; assay: MTT cell growth inhibition, CNE-2; assay type: cell-based; conditions: CNE-2, MTT assay, 72 h, read-out: IC50, growth of tumor cell line
Description: as §3, §4

[7] = test system: human promyelocytic leukemia cell line HL-60; assay: MTT cell growth inhibition, HL-60; assay type: cell-based; conditions: HL-60, MTT assay, 72 h, read-out: IC50, growth of tumor cell line
Description: as §3, §4

[8] = test system: doxorubicin-resistant hepatocellular carcinoma cell line HepG2/ADM; assay: MTT cell growth inhibition, HepG2/ADM; assay type: cell-based, human; conditions: MTT assay, 72 h, read-out: IC50, growth of tumor cell line
Description: as §3, §4

[9] = test system: human colon cancer cell line LOVO; assay: MTT cell growth inhibition, LOVO; assay type: cell-based; conditions: LOVO (FAPα positive), MTT assay, 72 h, read-out: IC50, growth of tumor cell line
Description: as §3, §4

[10] = MTT cytotoxicity on normal cells, LO2; conditions: human, LO2 cells (human normal liver cells)
Description: (§5) Then, 100 μL of cells (cell concentration was 5×10^5/mL) were seeded into 96 wells plate. After 24 h incubation at 37° C. with 5% CO2, tested compounds were added (the control group without compound) for an additional 72 h incubation. After that, 30 μL of MTT [3-(4,5-Dimethylthiazol-2-yl)-2,5-diphenyltetrazolium bromide] solution (5 mg/mL) was added into each well and incubated for another 4 h at 37° C. and then the formazan crystals were solubilized with 100 μL DMSO. Finally, absorbance of each well was determined at 570 nm by a microplate reader (Thermo).
(§6) The standard curve was drew with compound concentrations as the abscissa and cell growth inhibition rates as the ordinate. The concentration required to inhibit cell growth by 50% (IC50) was calculated from survival curves.
(§7) Experimental method: In vitro cytotoxicities of vinca alkaloids, hydrazinolyzed vinca alkaloids and vinca alkaloid dipeptide derivatives on human normal liver cells LO2 and human umbilical vein endothelial cells HUVEC were detected according to the method of Example 2.

[11] = test system: human non-small-cell lung cancer cell line A549; assay: MTT cell growth inhibition, A549; assay type: cell-based; conditions: A549, MTT assay, 72 h, read-out: IC50, growth of tumor cell line
Description: as §3, §4

[12] = test system: human leukemia cell line K562; assay: MTT cell growth inhibition, K562; assay type: cell-based; conditions: K562, MTT assay, 72 h, read-out: IC50, growth of tumor cell line
[13] = test system: doxorubicin-resistant human breast cancer cell lines MCF-7/ADR; assay: MTT cell growth inhibition, MCF-7/ADR; assay type: cell-based; conditions: Homo sapiens, NCI/ADR-RES, MTT assay, 72 h, read-out: IC50, growth of tumor cell line
Description: as §3, §4

[14] = MTT cytotoxicity on normal cells, HUVEC; conditions: human, HUVEC (human umbilical vein endothelial cells)
Description: as §5, §6, §7

[15] = test system: human prostatic cancer cell line DU145; assay: MTT cell growth inhibition, DU-145; assay type: cell-based; conditions: DU-145, MTT assay, 72 h, read-out: IC50, growth of tumor cell line
Description: as §3, §4

[16] = test system: human neuroblastoma cell line SH-SY5H; assay: MTT cell growth inhibition, SH-SY5H; assay type: cell-based; conditions: MTT assay, 72 h, read-out: IC50, growth of tumor cell line
[17] = test system: human cervical carcinoma cell line Hela; assay: MTT cell growth inhibition, Hela; assay type: cell-based; conditions: MTT assay, 72 h, read-out: IC50, growth of tumor cell line
Description: as §3, §4

[18] = test system: human gastric carcinoma cell line NCI-N87; assay: MTT cell growth inhibition, NCI-N87; assay type: cell-based; conditions: NCI-N87, MTT assay, 72 h, read-out: IC50, growth of tumor cell line
Description: as §3, §4

[19] = test system: human breast cancer cell line MDA-MB-231; assay: MTT cell growth inhibition, MDA-MB-231; assay type: cell-based; conditions: MDA-MB-231, MTT assay, 72 h, read-out: IC50, growth of tumor cell line
[20] = test system: HL-60 xenografts; assay: HL-60 xenografts in nude mice; assay type: in vivo; conditions: HL-60 xenograft nude mice; for Anti-tumor rate (%) / Body weight (g) Post-dose / Tumor weight: 1 mg/kg; for Body weight (g) Pre-dose: before dosing
Description: (§1) Experimental method: The MDA-MB-231 cells at logarithmic phase were digested and washed twice with PBS. Then, 100 μL cells (1×10^7) were inoculated subcutaneously on the backs of female BALB/nu/nu mice. After tumors grew to 70˜100 mm^3, the mice were divided randomly into saline group (control group), vinca alkaloids groups (VLB, CCRB, CCFN, CCXJ) and vinca alkaloid derivatives groups (JJ-CCJ, BX-CCJ, JJ-CCRB, BX-CCRB, JJ-CCFN, BX-CCFN, JJ-CCXJ and BX-CCXJ), with six mice per group. 1 mg/kg drugs were injected intraperitoneally every two days, meanwhile body weight and tumor sizes were measured. Experiment was ended after 8 times of drug administration, then tumor and organs were stripped. Tumor volumes were measured using the following formula: V=½(ab^2), whereas a refers to the longest diameter and b is the shortest diameter.
(§2) Tumor xenograft models of HepG2, LOVO, K562 and HL-60 cell lines were performed as the method described above.

[21] = test system: LOVO xenografts; assay: LOVO xenografts in nude mice; assay type: in vivo; conditions: LOVO xenograft nude mice; for Anti-tumor rate (%) / Body weight (g) Post-dose / Tumor weight: 1 mg/kg; for Body weight (g) Pre-dose: before dosing
Description: as §1, §2

[22] = test system: HepG2 xenografts; assay: HepG2 xenografts in nude mice; assay type: in vivo; conditions: HepG2 xenograft nude mice; for Anti-tumor rate (%) / Body weight (g) Post-dose / Tumor weight: 1 mg/kg; for Body weight (g) Pre-dose: before dosing
Description: as §1, §2

[23] = test system: human normal liver cells LO2; assay: MTT cytotoxicity on normal cells, LO2; conditions: read-out: IC50, cytotoxicity on normal cell line; LO2, MTT assay
Description: as §5, §6, §7

[24] = test system: Kunming mice; assay: Acute toxicity test; assay type: in vivo; conditions: injected intraperitoneally
Description: Experimental method: Kunming mice were purchased from Guangdong Medical Experimental Animal Center, weighing 18-22 g, then randomly divided into several groups with 10 mice in each group. Different concentrations of VLB and vinca alkaloid dipeptide derivatives were injected intraperitoneally. Finally, the median lethal dose (LD50) was calculated according to the surviving animals.
LD50 was measured using the following formula:
LD50 (mg/kg)=The median lethal dose/body weight

[25] = test system: MDA-MB-231 xenografts; assay: MDA-MB-231 xenografts in nude mice; assay type: in vivo, BALB/nu/nu mice; conditions: MDA-MB-231 xenograft nude mice; for Anti-tumor rate (%) / Body weight (g) Post-dose / Tumor weight: 1 mg/kg i.p. every two days, 8 administrations; for Body weight (g) Pre-dose: before dosing
Description: as §1

[26] = test system: human umbilical vein endothelial cells HUVEC; assay: MTT cytotoxicity on normal cells, HUVEC; conditions: read-out: IC50, cytotoxicity on normal cell line; HUVEC, MTT assay
Description: as §5, §6, §7

[27] = test system: K562 xenografts; assay: K562 xenografts in nude mice; assay type: in vivo; conditions: K562 xenograft nude mice; for Anti-tumor rate (%) / Body weight (g) Post-dose / Tumor weight: 1 mg/kg; for Body weight (g) Pre-dose: before dosing
Description: as §1, §2

[28] = Homo sapiens, Neuroblastoma cell

## CC[C@]1(O)C[C@H]2CN(CCc3c([nH]c4ccccc34)[C@@](C(=O)OC)(c3cc4c(cc3OC)N(C=O)[C@H]3[C@@](O)(C(=O)OC)[C@H](OC(C)=O)[C@]5(CC)C=CCN6CC[C@]43[C@@H]65)C2)C1 [Vincristine, reference compound]
[1]; Homo sapiens
  IC50: 2.93 ± 0.37 nM
[2]; Homo sapiens
  IC50: 0.97 ± 0.12 nM
[3]; Homo sapiens, MCF7
  IC50: 2.74 ± 0.36 nM
[4]; Homo sapiens, Bel7402/5-FU
  IC50: 22.7 ± 3.37 nM
[5]; Homo sapiens, A-375
  IC50: 0.95 ± 0.16 nM
[6]; Homo sapiens
  IC50: 1.51 ± 0.76 nM
[7]; Homo sapiens
  IC50: 1.81 ± 0.17 nM
[8]; Homo sapiens
  IC50: 7.78 ± 2.01 nM
[9]; Homo sapiens
  IC50: 0.74 ± 0.09 nM
[10]
  IC50 at 72 h: 0.21 ± 0.05 nM
[11]; Homo sapiens
  IC50: 1.32 ± 0.03 nM
[12]; Homo sapiens
  IC50: 1.07 ± 0.33 nM
[13]
  IC50: 9.67 ± 2.2 nM
[14]
  IC50 at 72 h: 0.42 ± 0.09 nM
[15]; Homo sapiens
  IC50: 1.17 ± 0.31 nM
[16]; [28]
  IC50: 1.34 ± 0.21 nM
[17]; Homo sapiens
  IC50: 2.33 ± 0.77 nM
[18]; Homo sapiens
  IC50: 0.87 ± 0.26 nM
[19]; Homo sapiens
  IC50: 1.03 ± 0.22 nM

## CCC1=CC2CN(C1)Cc1c([nH]c3ccccc13)C(C(=O)OC)(c1cc3c(cc1OC)N(C)C1C(O)(C(=O)NNC(=O)C4CCCN4C(=O)CNC(=O)OCc4ccccc4)C(O)C4(CC)C=CCN5CCC31C54)C2 (stereo not drawn) [BX-CCRB, Z-GP-NHNH-Vinorelbine]
[1]
  IC50: 269.8 ± 2.03 nM
[2]
  IC50: 167 ± 4.37 nM
[3]
  IC50: 238 ± 8.37 nM
[4]
  IC50: 325 ± 11.7 nM
[20]
  Anti-tumor rate (%): 74.52** %
  Body weight (g) Post-dose: 19.2 ± 1.3 g
  Tumor weight: 0.53 ± 0.28 g
  Body weight (g) Pre-dose: 19.0 ± 1.2 g
[5]
  IC50: 120 ± 14.5 nM
[6]
  IC50: 210 ± 5.78 nM
[21]
  Anti-tumor rate (%): 80.14** %
  Body weight (g) Post-dose: 24.1 ± 2.3 g
  Tumor weight: 0.57 ± 0.23 g
  Body weight (g) Pre-dose: 23.6 ± 1.2 g
[22]
  Anti-tumor rate (%): 85.49** %
  Body weight (g) Post-dose: 22.6 ± 0.5 g
  Tumor weight: 0.37 ± 0.09 g
  Body weight (g) Pre-dose: 22.2 ± 1.5 g
[7]
  IC50: 208 ± 18.4 nM
[8]
  IC50: 437 ± 14.4 nM
[9]
  IC50: 123 ± 11.4 nM
[23]
  IC50: 183 ± 5.51 nM
[11]
  IC50: 115 ± 5.23 nM
[24]
  LD50 (median lethal dose): 12 mg/kg
[12]
  IC50: 109 ± 4.66 nM
[25]
  Anti-tumor rate (%): 85.83** %
  Body weight (g) Post-dose: 20.1 ± 0.9 g
  Tumor weight: 0.37 ± 0.07 g
  Body weight (g) Pre-dose: 19.1 ± 1.7 g
[26]
  IC50: 167 ± 8.87 nM
[15]
  IC50: 219 ± 6.29 nM
[16]
  IC50: 166 ± 15.6 nM
[17]
  IC50: 182 ± 2.36 nM
[27]
  Anti-tumor rate (%): 72.62** %
  Body weight (g) Post-dose: 23.4 ± 1.2 g
  Tumor weight: 0.46 ± 0.29 g
  Body weight (g) Pre-dose: 22.1 ± 0.5 g
[18]
  IC50: 244 ± 9.33 nM
[19]
  IC50: 181 ± 8.1 nM

## CC[C@]1(O)C[C@@H]2CN(CCc3c([nH]c4ccccc34)[C@@](C(=O)OC)(c3cc4c(cc3OC)N(C)[C@H]3[C@@](O)(C(=O)NN)[C@H](O)[C@]5(CC)C=CCN6CC[C@]43[C@@H]65)C2)C1 [JJ-CCJ, hydrazinolyzed vinblastine]
[1]; Homo sapiens
  IC50: 6.27 ± 0.61 nM
[2]; Homo sapiens
  IC50: 12.4 ± 0.72 nM
[3]; Homo sapiens, MCF7
  IC50: 23.9 ± 3.07 nM
[4]; Homo sapiens, Bel7402/5-FU
  IC50: 80.3 ± 7.53 nM
[20]
  Anti-tumor rate (%): 69.23** %
  Body weight (g) Post-dose: 16.1 ± 0.4 g
  Tumor weight: 0.64 ± 0.17 g
  Body weight (g) Pre-dose: 20.1 ± 1.7 g
[5]; Homo sapiens, A-375
  IC50: 4.56 ± 0.57 nM
[6]; Homo sapiens
  IC50: 7.14 ± 0.16 nM
[21]
  Anti-tumor rate (%): 77.71** %
  Body weight (g) Post-dose: 17.3 ± 1.2 g
  Tumor weight: 0.64 ± 0.21 g
  Body weight (g) Pre-dose: 22.8 ± 1.7 g
[22]
  Anti-tumor rate (%): 77.65** %
  Body weight (g) Post-dose: 16.1 ± 0.3 g
  Tumor weight: 0.57 ± 0.7 g
  Body weight (g) Pre-dose: 21.7 ± 1.2 g
[7]; Homo sapiens
  IC50: 8.65 ± 1.28 nM
[8]; Homo sapiens
  IC50: 43.9 ± 3.77 nM
[9]; Homo sapiens
  IC50: 32.9 ± 6.39 nM
[10]
  IC50 at 72 h: 20.1 ± 0.97 nM
[11]; Homo sapiens
  IC50: 6.43 ± 2.42 nM
[12]; Homo sapiens
  IC50: 3.67 ± 0.79 nM
[25]
  Anti-tumor rate (%): 87.74** %
  Body weight (g) Post-dose: 16.4 ± 1.7 g
  Tumor weight: 0.32 ± 0.03 g
  Body weight (g) Pre-dose: 20.3 ± 0.7 g
[14]
  IC50 at 72 h: 36.1 ± 1 nM
[15]; Homo sapiens
  IC50: 5.33 ± 0.6 nM
[16]; [28]
  IC50: 6.24 ± 1.31 nM
[17]; Homo sapiens
  IC50: 14.5 ± 1.81 nM
[27]
  Anti-tumor rate (%): 68.45** %
  Body weight (g) Post-dose: 16.5 ± 0.8 g
  Tumor weight: 0.53 ± 0.19 g
  Body weight (g) Pre-dose: 22.1 ± 1.9 g
[18]; Homo sapiens
  IC50: 17.4 ± 2.2 nM
[19]; Homo sapiens
  IC50: 5.99 ± 3.29 nM
